Measured values from patent publication US9682062B2, “Pharmaceutical compositions and method for inhibiting angiogenesis” (Industrial Technology Research Institute, priority 2012, dated 2017).

How the values were obtained:
laser-induced CNV = test: Laser-induced choroidal neovascularization (CNV) assay; assay type: in vivo, brown Norway rats; conditions: 1 μg/2 ul in DMSO per eye, fluorescein angiography
From the text: Male rats (brown Norway rats, purchased from BioLASCO Co., Taiwan) were used. CNV lesions were induced in rat eyes by laser photocoagulation. Briefly, after the rats were anesthetized, their pupils were dilated with 1% tropicamide. A piece of 18×24 mm^2 standard cover glass served as a contact lens for application of photocoagulation. Argon laser irradiation was delivered through a slit lamp. Laser parameters were set as follows: spot size of 50 μm; power of 120 mW; and exposure duration of 0.1 second. An attempt was made to break Bruch's membrane, as clinically evidenced by central bubble formation, with or without intraretinal or choroidal hemorrhage. Four to six lesions were created between the major retinal vessels in each fundus. One day prior to laser treatment, animals received bilateral intravitreal injection of 2 ul JC-5 (1 ug/eye, N=6) or 2 ul vehicle (DMSO, N=6). Fourteen days later, a self-retaining eye speculum was placed in the eye to facilitate administration. […] Rats were analyzed under general anesthesia after dilation of the pupil and subsequent intraperitoneal injection of 0.5 ml of 2.5% fluorescein sodium (Alcon, […], Germany). […] For quantitative analysis of fluorescein leakage, the area of fluorescein leakage, determined as area of hyperfluorescence in which no normal retinal blood vessels were observed, was measured for each burn using ImageJ software (NIH, USA).

[1] = test system: human umbilical vein endothelial cells (HUVEC); test: Inhibition of HUVEC net structure (tube) formation on ECM/Matrigel; assay type: cell-based; conditions: group without drug = 100%, read-out: 50% inhibiting concentration (IC50) for inhibiting tube formation
Method: The lyophilized powder was dissolved in an appropriate solvent and an in vitro anti-angiogenesis was performed thereto. The ability of the extract for inhibiting net structure formation of human umbilical vein endothelial cells (HUVEC) in extracellular matrix (ECM) or growth factor reduced Matrigel was analyzed, and the forming level of the tube structure thereof was integrated to be used as an indicator for quantification.
Furthermore, by using Matrigel (BD, Cat. No. 356231) as a matrix and observing the state of human umbilical vein endothelial cells (HUVECs) constructing a net structure on the matrix, state of JC-5 (yatein) inhibiting the formation of HUVEC net structure was analyzed. […] The total length of the net structure was calculated through NIS element image analysis software (Nikon; Agent: Lin Trading Co., Ltd. Taiwan), wherein by using the total length of a net structure formed from a group without a drug addition as 100%, the state of JC-5 inhibiting the formation of HUVEC net structure was analyzed.
By using Matrigel (BD, Cat. No. 356231) as a matrix and observing the state of human umbilical vein endothelial cells (HUVECs) constructing a net structure on the matrix, the states of the crude extract (CBT-143-S) and the fractional extract (CBT-143-S-F6F7) inhibiting the formation of HUVEC net structure were analyzed. […]

[2] = test system: bFGF-induced corneal neovascularization; test: Rat corneal neovascularization (corneal pocket) assay; assay type: in vivo, Sprague Dawley rats; conditions: pellet with 60 ng of bFGF plus 1 ug JC-5, day 7
Method: Pellets made of the hydron polymer (polyHEME) and a test drug or DMSO were implanted on the corneal surface of rats, and vascular formation thereof was observed.
A hydron polymer (polyHEME) was dissolved in absolute ethanol (12% w/v) in a rotator at 37° C. overnight, and then stored at room temperature before pellet making. Each pellet for the corneal pocket assay contained 60 ng of bFGF, or 1 ug JC-5 and 20 ug of sucralfate in 3 uL of casting gel, which was constituted as a 50:50 (vol/vol) mixture of hydron gel and factor-sucralfate-PBS. The casting gel was promptly pipetted onto an autoclaved, sterilized 20×20-mm piece of nylon mesh with an approximate pore size of 2×2 mm. The pellets were prepared the day before corneal surgery in a laminar flow hood under sterile conditions. Subsequently, the fibers of the mesh were pulled apart, and uniformly sized pellets of 2×2×0.4 mm^3 were selected for implantation. All procedures were performed in sterile conditions. Such pellets can be stored frozen at −20° C. for several days without loss of bioactivity. […] The eyes were exposed, and the maximum vessel length (VL) of the neovascularization zone, extending from the base of the limbal vascular plexus toward the pellet, was measured. […] The contiguous circumferential zone of neovascularization (CN) was measured in clock hours with a 360° reticule (where 30° of arc equals 1 clock hour).

PBMCs = test: Toxicity test for normal cells, PBMCs (Alamarblue cell viability assay); assay type: cell-based; conditions: PBMC, 72 hours incubation, read-out: IC50 of a test drug for PBMCs
Method: In order to investigate whether the inhibiting effects mentioned above of the crude extract (CBT-143-S) and the fractional extract (CBT-143-S-F6F7) are due to the toxicity thereof or not, cell viability assay for normal cells, PBMCs, and growth inhibition assays for HUVECs were performed to the crude extract (CBT-143-S) and the fractional extract (CBT-143-S-F6F7), and a commercial clinical drug, sorafenib, were used for comparison as a reference.
Alamarblue is a plant dye that is usually blue. The dye decomposes during cell proliferation and reduces from blue to pink, and a rise in O.D. at 570 nm can be determined. Conversely, the more dead cells there are, the lower the O.D. value is determined to be.
PBMC cells (1×10^5 cells/well) were inoculated in a 96-well plate, and the crude extract (CBT-143-S) and the fractional extract (CBT-143-S-F6F7) samples, etc. with different concentrations (300, 100, 30, 10, 3 and 1 μg/mL) were added to the plate. After incubating for 72 hours, Alamarblue was added to the plate and incubated at 37° C. for 24 hours, and then the O.D. at 570 nm/600 nm thereof was determined by an ELISA reader. After that, the obtained O.D. values were substituted into the formal calculation as follows: […]

[3] = test system: Hep-3B conditional medium (CM)-induced angiogenesis; test: Matrigel plugs assay, in vivo Hep-3B conditional medium-induced angiogenesis; parameters: species or system BALB/c mice; conditions: orally administered every day 30 mg/kg/day, 14 days
Method: Through a subcutaneous injection to BALB/c mice to form Matrigel plugs, an evaluation was made of whether a test substance was capable of inhibiting angiogenesis induced by vascular endothelial growth factor or Hep-3B conditional medium (CM).
Matrigel is extracted from the Engelbreth-Holm-Swarm (EHS) mouse sarcoma and contains rich extracellular matrix proteins and contains various factors need by vascular growth. In a condition of room temperature and 37° C., Matrigel is capable of polymerize as a solid gel from, and can provide a better growth environment for vascular endothelial cells.
Matrigel and vascular endothelial growth factors (FGFb+VEGF) or Hep-3B conditional medium (CM) were mixed, and then a test substance was added thereto and mixed. […]
(c) Hemoglobin content in Matrigel was quantified by a QuantiChrom™ Hemoglobin Assay Kit (DIHB-250) to evaluate the amount of neo-blood vessels in Matrigel.
After subcutaneous injection to BALB/c mice for 14 days, the Matrigel plugs in the subcutaneous tissue of the mouse was taken out and equal amount of dispase was added therein to form a mixture and reacted at 37° C. for 16 hours to dissolve intercellular substance gel. […] After the supernatant was reacted with the reagent for 5 minutes, the optical density (O.D.) at 400 nm therefrom was determined. […]

[4] = test system: growth factor (FGFb+VEGF)-induced angiogenesis; test: Matrigel plugs assay, in vivo growth factor-induced angiogenesis; parameters: species or system BALB/c mice; conditions: orally administered every day 30 mg/kg/day, 14 days

Row | SMILES | CNV lesions areas compared to DMSO-treated vehicles (laser-induced CNV; intravitreal, day 7 and day 14) | fluorescent dye uptake and extent of CNV (laser-induced CNV) | IC50 [1] | neovascular response in implanted cornea [2] | IC50 (PBMCs) | hemoglobin concentration of the Matrigel plug [3] | hemoglobin concentration of the Matrigel plug [4]
1 | COc1cc(C[C@H]2C(=O)OC[C@@H]2Cc2ccc3c(c2)OCO3)cc(OC)c1OC [JC-5, yatein] | significantly decreased | less | 0.335 µM | inhibited |  |  | 
2 | CNC(=O)c1cc(Oc2ccc(NC(=O)Nc3ccc(Cl)c(C(F)(F)F)c3)cc2)ccn1 [Sorafenib, sorafenib] |  |  |  |  | 10.8 ± 0.95 µM | 25.05 ± 17.59 mg/dL | 27.09 ± 5.88 mg/dL
